Measurements: publication doi:10.1101/2025.09.30.679465v1, “Large-Scale Structure-Based Virtual Screening Identifies Diverse KNa1.1 (KCNT1) Potassium Channel Inhibitors” (biorxiv, 2025)
Changes are numbered by the printed parent chain.

Biological target: T1, KNa1.1 WT/Y796H (Homo sapiens, UniProt Q5JUK3, Y796H)
T1 construct: gene KCNT1; full-length WT KNa1.1 and Y796H KNa1.1 subunits joined by self-cleaving T2A linker in pcDNA6
T1 sequence (Q5JUK3 1-1230): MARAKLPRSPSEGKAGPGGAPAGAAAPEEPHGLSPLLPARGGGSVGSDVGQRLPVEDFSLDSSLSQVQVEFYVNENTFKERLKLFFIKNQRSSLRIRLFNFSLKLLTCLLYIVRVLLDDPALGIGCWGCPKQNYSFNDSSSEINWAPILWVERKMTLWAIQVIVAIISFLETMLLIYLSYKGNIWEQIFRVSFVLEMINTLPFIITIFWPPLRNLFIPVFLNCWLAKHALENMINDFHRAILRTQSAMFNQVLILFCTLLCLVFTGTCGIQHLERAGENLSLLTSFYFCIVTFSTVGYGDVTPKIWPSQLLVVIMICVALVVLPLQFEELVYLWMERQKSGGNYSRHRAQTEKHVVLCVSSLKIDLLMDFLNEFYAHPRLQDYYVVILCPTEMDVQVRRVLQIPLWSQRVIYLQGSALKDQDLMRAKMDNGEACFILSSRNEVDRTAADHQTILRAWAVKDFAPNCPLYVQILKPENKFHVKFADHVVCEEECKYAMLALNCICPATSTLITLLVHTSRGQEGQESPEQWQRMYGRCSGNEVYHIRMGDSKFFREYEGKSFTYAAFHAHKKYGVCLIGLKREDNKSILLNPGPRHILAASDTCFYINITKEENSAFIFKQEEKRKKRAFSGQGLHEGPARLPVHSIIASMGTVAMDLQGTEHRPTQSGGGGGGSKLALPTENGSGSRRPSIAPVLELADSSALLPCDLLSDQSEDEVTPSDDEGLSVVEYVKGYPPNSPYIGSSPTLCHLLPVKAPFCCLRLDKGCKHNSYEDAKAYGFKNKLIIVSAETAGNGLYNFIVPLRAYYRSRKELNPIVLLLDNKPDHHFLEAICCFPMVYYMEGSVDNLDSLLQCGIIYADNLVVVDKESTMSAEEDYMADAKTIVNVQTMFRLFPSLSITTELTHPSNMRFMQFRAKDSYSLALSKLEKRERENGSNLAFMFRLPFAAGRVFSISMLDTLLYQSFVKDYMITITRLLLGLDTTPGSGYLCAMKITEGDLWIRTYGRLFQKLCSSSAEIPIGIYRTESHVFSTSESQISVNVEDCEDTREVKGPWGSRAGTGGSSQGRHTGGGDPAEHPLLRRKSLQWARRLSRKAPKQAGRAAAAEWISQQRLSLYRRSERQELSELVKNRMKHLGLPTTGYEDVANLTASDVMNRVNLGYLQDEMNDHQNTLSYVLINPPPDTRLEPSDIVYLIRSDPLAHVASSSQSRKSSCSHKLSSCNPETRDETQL
T1 sequence (Q5JUK3 1-1230 Y796H): T1 sequence (Q5JUK3 1-1230) with Y796H
Assay: thallium flux (Thallos AM), HEK293
Format: cell-based
Source text: thallium flux (Thallos AM), HEK293 on KNa1.1 WT/Y796H

**Q.** `CC(c1ccccc1)N1CCCN(c2cccc(NC(=O)Nc3cccc(Cl)c3)c2)C1=O` (stereo not shown) [compound 1, Cpd1] was tested. Which IC50 did it give?
**A.** 4.7 µM
